From patent US10745778B2, “Leaching aids and methods of using leaching aids” (BASF SE, priority 2015, dated 2020)

Experiment: Surface tension of synthetic pregnant leaching solution (Example 4)
Assay type: physicochemical
Details: synthetic PLS 6 g/L copper, 2 g/L iron, pH about 2.0
Protocol: This example investigated a method for determining the impact of a leaching aid on the surface tension of a typical leaching solution. A synthetic pregnant leaching solution (“PLS”) of 6 g/L copper and 2 g/L iron at a pH of about 2.0 was prepared in deionized (“DI”) water to form a quality control (“QC”) feed. To this, mixtures of synthetic PLS having varying levels of Leach aid A (i.e., MC1000) or Leach Aid B (i.e., TMP-7(EO)) were prepared and the surface tension of each solution was measured.

surface tension as a function of concentration of the leaching aid: decreased with increasing concentration
SMILES: CCCCCCCCCC[N+](C)(C)CC(=O)[O-] [MC1000]
